Calls of active or inactive are those of the source.
What was measured:
Caspase-7 = Caspase-7 (Homo sapiens, UniProt P55210); test: activation of caspase-7 zymogen – biochemical, absorbance, counter-screen for procaspase-3 activator project, dose response (AID 489013)
Caspase-3 = target: T1, Caspase-3 (Homo sapiens, UniProt P42574); test: activation of caspase-3 zymogen – biochemical, absorbance, dose response (AID 489014)
T1 sequence (P42574 whole entry): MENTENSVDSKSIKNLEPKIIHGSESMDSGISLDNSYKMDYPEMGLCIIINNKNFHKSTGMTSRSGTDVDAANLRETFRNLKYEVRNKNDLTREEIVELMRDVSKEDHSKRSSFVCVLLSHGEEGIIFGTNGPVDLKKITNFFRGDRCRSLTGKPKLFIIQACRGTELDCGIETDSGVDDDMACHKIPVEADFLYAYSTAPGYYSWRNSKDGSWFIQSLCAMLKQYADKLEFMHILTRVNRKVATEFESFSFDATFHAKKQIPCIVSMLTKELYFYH

[1] = Luminescence Cell-Based Dose Retest to Confirm Inhibitors of Cancer Stem Cells. [Related pubchem assays (depositor defined):AID2717, AID2721]; type: functional, Homo sapiens; settings: Homo sapiens
Hexokinase = Hexokinase (Trypanosoma brucei, UniProt Q38C41); test: Confirmation assay for inhibitors of Trypanosoma brucei hexokinase 1-Analogue-first series. [Related pubchem assays (depositor defined):AID1430, AID1632, AID2516, AID2560, AID2579, AID2600, AID449725, AID492951]; type: functional
[2] = target: T2, Mannose-6-phosphate isomerase (Homo sapiens, UniProt P34949); test: phosphomannose isomerase inhibition – biochemical, fluorescence intensity, confirmation (AID 1535)
T2 sequence (P34949 whole entry): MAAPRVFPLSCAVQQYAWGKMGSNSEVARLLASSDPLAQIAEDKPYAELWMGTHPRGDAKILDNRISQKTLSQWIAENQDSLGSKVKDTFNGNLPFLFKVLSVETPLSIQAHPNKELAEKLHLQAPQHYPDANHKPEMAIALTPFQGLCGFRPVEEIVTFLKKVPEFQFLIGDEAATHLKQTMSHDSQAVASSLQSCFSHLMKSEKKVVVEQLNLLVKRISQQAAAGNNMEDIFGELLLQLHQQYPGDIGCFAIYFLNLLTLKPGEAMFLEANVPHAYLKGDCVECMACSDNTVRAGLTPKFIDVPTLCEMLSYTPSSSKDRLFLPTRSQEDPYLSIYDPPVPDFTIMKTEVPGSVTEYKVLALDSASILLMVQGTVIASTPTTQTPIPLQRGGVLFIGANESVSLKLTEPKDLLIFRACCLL

[3] = target: Alkaline phosphatase, placental type (Homo sapiens, UniProt P05187); test: human placental alkaline phosphatase inhibition – biochemical, luminescence, confirmation (AID 1512); type: functional
[4] = target: T2, Mannose-6-phosphate isomerase; test: Confirmation of compounds inhibiting phosphomannose isomerase (PMI) via a fluorescence intensity assay using a high concentration of mannose 6-phosphate. [Related pubchem assays (depositor defined):AID1209, AID1220, AID1545, AID1553, AID1620]
[5] = target: T3, G-protein coupled receptor 55 (Homo sapiens, UniProt Q9Y2T6); test: inhibition of LPI-stimulated GPR55 beta-arrestin translocation – imaging, U2OS, beta-arrestin-GFP, LPI agonist, primary screen (AID 2013); type: functional;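 also: antagonist potency measured as reduced agonist-driven arrestin aggregation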
[6] = target: Phosphoethanolamine/phosphocholine phosphatase (Homo sapiens, UniProt Q8TCT1); test: SAR assay for compounds that inhibit PHOSPHO1. [Related pubchem assays (depositor defined):AID1545, AID1565, AID1574]
Phosphomannomutase 2 = Phosphomannomutase 2 (Homo sapiens, UniProt O15305); test: Counter screen SAR assay for PMM2 inhibitors via a fluorescence intensity assay. [Related pubchem assays (depositor defined):AID1545, AID1574]
HeLa = test: viability loss in HeLa cells – cell-based, 24 h, cherry-picked samples, cytotoxicity control, dose response (AID 504726); type: functional; settings: Homo sapiens;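 also: potency for cytotoxicity as loss of luminescence signal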
[7] = viability loss in HeLa cells – cytotoxicity control for MgcRacGAP inhibitor project, dose response (AID 624300); type: functional
[8] = target: T4, Rac GTPase-activating protein 1 (Homo sapiens, UniProt Q9H0H5); test: blockers of MgcRacGAP-driven Rac1 GTP hydrolysis – biochemical, ADP Hunter fluorescence, primary and confirmatory, confirmation (AID 624330); type: functional
T4 sequence (Q9H0H5 whole entry): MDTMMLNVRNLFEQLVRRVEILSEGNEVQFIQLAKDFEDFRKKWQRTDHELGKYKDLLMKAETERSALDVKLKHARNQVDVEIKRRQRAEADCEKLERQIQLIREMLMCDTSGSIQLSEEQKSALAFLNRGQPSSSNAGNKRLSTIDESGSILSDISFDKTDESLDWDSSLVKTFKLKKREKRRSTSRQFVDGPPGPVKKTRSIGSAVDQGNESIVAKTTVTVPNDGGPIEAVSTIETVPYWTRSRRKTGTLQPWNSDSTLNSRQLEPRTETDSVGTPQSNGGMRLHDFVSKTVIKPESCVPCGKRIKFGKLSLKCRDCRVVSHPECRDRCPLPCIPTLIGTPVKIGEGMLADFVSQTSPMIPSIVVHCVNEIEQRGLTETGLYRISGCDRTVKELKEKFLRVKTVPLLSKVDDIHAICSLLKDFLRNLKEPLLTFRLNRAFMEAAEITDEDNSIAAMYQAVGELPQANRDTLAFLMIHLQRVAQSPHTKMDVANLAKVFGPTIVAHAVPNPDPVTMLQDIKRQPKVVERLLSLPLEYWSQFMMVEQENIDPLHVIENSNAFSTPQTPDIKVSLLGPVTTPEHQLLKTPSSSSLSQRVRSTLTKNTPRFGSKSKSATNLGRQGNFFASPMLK

[9] = protection from phage-mediated lysis, alamar blue read-out – E. coli UTI89, K1F phage, bacterial capsule biogenesis inhibitors (AID 488966); type: functional
[10] = Luminescence-based cell-based high throughput dose response assay to identify activators of the DAF-12 from the parasite S. stercoralis (ssDAF-12).; type: functional
ORF 73 = target: T5, ORF 73 (Human herpesvirus 8, UniProt O40947); test: KSHV LANA DNA-binding disruption – biochemical, fluorescence polarization, cherry-picked samples, dose response (AID 504725); parameters: species or system Human gammaherpesvirus 8;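 also: fluorescence polarization of a labeled DNA duplex reporting LANA DNA binding; potency is for inhibitors that block LANA binding to the DNA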
T5 sequence (O40947 whole entry): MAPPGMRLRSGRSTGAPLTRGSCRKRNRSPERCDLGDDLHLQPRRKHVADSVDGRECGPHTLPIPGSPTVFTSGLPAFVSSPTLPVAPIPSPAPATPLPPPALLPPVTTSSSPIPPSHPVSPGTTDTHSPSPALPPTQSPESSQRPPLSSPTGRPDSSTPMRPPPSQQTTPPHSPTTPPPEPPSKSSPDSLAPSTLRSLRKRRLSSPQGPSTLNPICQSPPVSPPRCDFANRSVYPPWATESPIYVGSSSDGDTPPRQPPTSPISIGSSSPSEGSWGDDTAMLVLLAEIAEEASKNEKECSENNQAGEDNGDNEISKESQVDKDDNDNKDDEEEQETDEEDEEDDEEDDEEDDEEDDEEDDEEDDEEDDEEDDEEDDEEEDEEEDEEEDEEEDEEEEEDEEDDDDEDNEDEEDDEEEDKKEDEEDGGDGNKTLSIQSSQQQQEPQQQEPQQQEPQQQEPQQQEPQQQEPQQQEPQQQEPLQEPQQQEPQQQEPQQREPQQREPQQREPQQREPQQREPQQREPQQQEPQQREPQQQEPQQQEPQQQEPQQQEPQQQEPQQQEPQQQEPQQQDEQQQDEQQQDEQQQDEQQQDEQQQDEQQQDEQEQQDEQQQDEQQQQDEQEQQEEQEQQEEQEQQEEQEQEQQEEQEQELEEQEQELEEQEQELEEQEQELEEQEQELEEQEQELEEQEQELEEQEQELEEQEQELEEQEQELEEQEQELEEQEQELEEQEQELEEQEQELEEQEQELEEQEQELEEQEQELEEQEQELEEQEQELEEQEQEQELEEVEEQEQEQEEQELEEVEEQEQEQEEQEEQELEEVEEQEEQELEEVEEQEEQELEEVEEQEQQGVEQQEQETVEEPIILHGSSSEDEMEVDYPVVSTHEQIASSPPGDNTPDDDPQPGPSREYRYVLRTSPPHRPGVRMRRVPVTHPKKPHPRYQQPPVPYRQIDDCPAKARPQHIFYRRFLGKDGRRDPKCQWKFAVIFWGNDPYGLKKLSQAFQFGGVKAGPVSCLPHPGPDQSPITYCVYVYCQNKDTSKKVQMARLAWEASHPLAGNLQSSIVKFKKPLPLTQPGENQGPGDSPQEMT

[11] = target: T6, Oxysterols receptor LXR-beta (Homo sapiens, UniProt P55055); test: LXR agonists, Gal4 luciferase reporter, dose response, counter-screen for ssDAF-12 agonist project, cell-based, luminescence, HEK293, S. stercoralis campaign (AID 720737); type: functional; settings: read-out: IC50 (the source's name)
T6 sequence (P55055 whole entry): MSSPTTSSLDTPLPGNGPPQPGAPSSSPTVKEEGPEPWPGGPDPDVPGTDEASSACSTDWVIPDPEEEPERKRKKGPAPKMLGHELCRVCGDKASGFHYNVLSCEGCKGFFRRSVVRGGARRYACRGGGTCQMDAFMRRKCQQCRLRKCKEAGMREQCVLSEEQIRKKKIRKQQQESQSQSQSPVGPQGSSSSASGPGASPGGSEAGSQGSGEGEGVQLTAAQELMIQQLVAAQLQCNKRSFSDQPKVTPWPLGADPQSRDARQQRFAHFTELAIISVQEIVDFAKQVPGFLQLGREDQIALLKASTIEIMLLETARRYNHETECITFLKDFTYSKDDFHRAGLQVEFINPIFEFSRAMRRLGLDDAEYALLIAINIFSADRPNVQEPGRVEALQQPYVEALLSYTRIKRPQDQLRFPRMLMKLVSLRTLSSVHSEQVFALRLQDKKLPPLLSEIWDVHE

[12] = target: Glutathione S-transferase omega-1 (Homo sapiens, UniProt P78417); test: IC50 of human GSTO1 blockade by gel ABPP – biochemical, SE-Rh probe, in-gel fluorescence, powder samples, set 2, late-stage follow-up (AID 463142); type: functional
[13] = target: T7, Kappa-type opioid receptor (Homo sapiens, UniProt P41145); type: functional
[14] = target: T7, Kappa-type opioid receptor; type: functional; remark: listed apart in the source
cells = type: functional
Beta-galactosidase = Beta-galactosidase (Escherichia coli, UniProt Q8VNN2); type: functional
[15] = THP-1 cell cytotoxicity, dose response, cytotoxicity control for non-replicating M. tuberculosis project (AID 489025); type: functional
[16] = microbe, parasite or virus in culture; type: functional; settings: Mycobacterium tuberculosis
[17] = target: T3, G-protein coupled receptor 55; test: selective activators of receptor GPR55 – imaging, U2OS cells, beta-arrestin-GFP redistribution, primary screen (AID 1961); type: functional
[18] = NIH3T3 cell viability loss – ATP luminescence, mouse fibroblasts, counter-screen, dose response (AID 2010); type: functional, cell-based;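 also: cells exposed to compound for about 90 hours before reading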
Vero [19] = test: cells; type: functional, cell-based; settings: Chlorocebus sabaeus
Vero [20] = test: cells; type: functional; settings: Chlorocebus sabaeus
[21] = Trypanosoma cruzi growth suppression in host cells – NIH3T3 host cells, beta-gal luminescence, confirmation (AID 2044); type: functional, cell-based;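 also: intracellular parasites grown in NIH/3T3 mouse fibroblasts as host cells; luminescent beta-galactosidase reporter signal from transgenic T. cruzi replicating inside host cells; inhibitors lower the luminescence signal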
[22] = target: Potassium voltage-gated channel subfamily KQT member 2 (Rattus norvegicus, UniProt O88943); test: potentiation of rat KCNQ2 current – cell-based, retigabine-insensitive compounds, dose response (AID 2654); type: functional
Potassium voltage-gated channel subfamily KQT member 2, sequence (O88943 whole entry): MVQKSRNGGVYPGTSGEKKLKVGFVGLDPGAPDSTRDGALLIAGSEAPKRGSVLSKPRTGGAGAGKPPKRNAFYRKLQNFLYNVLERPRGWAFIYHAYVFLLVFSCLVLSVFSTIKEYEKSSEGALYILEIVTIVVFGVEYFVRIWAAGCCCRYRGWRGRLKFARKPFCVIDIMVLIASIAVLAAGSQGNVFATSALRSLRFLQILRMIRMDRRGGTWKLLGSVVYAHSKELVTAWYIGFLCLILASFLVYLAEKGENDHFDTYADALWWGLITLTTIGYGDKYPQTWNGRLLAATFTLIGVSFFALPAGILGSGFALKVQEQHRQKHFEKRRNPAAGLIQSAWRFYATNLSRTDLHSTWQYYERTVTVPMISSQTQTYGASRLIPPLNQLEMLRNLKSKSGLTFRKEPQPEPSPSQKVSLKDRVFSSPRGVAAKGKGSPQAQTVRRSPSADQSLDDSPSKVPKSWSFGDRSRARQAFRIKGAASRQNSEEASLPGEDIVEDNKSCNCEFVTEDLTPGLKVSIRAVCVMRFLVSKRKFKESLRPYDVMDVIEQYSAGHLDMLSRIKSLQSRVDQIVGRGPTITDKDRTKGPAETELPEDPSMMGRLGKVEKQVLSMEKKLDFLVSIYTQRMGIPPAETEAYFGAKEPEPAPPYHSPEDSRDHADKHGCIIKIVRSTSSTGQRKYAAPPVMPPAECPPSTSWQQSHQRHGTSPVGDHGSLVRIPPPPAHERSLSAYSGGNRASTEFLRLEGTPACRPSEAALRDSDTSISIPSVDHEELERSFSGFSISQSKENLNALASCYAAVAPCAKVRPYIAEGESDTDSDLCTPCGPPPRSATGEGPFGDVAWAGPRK

T7 sequence (P41145 whole entry): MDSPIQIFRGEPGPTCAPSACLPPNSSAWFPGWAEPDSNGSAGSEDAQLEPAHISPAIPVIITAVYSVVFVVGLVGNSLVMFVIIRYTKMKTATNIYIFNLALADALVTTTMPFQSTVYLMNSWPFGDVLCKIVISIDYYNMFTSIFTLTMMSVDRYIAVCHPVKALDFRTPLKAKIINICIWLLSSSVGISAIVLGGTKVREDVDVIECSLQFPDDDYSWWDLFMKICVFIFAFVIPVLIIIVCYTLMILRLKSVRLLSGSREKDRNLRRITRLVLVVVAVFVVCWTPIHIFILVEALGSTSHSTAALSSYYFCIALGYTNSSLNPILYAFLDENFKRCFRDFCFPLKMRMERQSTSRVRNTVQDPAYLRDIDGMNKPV
T3 sequence (Q9Y2T6 whole entry): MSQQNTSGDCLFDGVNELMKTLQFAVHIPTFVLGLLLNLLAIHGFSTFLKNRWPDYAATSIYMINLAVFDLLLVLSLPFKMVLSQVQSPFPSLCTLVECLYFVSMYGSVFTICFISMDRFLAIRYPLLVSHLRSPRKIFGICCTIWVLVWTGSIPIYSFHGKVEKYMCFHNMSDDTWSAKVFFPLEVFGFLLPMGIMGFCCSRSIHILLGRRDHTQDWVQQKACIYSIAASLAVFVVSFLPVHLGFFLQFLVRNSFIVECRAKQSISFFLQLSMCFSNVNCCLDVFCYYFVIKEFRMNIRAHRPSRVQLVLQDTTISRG
Phosphomannomutase 2, sequence (O15305 whole entry): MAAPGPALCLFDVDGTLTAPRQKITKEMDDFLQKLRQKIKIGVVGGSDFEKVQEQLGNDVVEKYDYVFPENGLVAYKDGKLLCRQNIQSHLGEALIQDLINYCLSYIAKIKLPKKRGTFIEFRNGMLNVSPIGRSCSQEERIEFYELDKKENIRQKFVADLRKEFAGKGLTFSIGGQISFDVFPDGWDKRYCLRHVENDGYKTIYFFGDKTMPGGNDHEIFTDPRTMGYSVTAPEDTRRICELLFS
Caspase-7, sequence (P55210 24-198 limits assumed): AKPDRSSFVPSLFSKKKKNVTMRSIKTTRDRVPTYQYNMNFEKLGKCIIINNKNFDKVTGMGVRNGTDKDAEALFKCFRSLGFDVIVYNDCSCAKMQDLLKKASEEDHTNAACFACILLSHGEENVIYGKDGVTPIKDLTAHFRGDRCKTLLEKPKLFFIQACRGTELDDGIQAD
Caspase-7, sequence (P55210 207-303 limits assumed): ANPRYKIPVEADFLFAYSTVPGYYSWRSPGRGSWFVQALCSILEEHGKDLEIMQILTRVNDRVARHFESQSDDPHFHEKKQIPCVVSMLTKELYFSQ
Alkaline phosphatase, placental type, sequence (P05187 whole entry): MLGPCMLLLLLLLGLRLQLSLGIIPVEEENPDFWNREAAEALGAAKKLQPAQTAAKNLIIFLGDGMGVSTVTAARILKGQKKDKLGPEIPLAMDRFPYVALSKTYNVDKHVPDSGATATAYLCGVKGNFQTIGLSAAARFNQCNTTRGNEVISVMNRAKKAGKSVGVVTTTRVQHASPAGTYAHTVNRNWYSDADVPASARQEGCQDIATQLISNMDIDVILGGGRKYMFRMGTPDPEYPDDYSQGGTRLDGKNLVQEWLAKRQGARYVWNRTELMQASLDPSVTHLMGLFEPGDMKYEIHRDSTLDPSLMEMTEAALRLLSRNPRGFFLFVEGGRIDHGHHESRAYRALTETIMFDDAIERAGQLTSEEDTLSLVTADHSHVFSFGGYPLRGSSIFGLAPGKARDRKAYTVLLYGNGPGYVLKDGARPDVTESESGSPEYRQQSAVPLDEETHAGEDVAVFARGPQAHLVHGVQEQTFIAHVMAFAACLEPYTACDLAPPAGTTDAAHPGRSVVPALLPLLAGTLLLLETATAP
Glutathione S-transferase omega-1, sequence (P78417 whole entry): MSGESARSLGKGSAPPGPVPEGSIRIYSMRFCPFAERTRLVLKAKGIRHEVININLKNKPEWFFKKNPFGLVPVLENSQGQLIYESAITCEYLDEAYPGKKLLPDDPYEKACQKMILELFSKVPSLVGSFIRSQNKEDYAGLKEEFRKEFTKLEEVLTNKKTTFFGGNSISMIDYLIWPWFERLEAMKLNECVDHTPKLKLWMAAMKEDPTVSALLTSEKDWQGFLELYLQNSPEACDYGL
Beta-galactosidase, sequence (Q8VNN2 whole entry): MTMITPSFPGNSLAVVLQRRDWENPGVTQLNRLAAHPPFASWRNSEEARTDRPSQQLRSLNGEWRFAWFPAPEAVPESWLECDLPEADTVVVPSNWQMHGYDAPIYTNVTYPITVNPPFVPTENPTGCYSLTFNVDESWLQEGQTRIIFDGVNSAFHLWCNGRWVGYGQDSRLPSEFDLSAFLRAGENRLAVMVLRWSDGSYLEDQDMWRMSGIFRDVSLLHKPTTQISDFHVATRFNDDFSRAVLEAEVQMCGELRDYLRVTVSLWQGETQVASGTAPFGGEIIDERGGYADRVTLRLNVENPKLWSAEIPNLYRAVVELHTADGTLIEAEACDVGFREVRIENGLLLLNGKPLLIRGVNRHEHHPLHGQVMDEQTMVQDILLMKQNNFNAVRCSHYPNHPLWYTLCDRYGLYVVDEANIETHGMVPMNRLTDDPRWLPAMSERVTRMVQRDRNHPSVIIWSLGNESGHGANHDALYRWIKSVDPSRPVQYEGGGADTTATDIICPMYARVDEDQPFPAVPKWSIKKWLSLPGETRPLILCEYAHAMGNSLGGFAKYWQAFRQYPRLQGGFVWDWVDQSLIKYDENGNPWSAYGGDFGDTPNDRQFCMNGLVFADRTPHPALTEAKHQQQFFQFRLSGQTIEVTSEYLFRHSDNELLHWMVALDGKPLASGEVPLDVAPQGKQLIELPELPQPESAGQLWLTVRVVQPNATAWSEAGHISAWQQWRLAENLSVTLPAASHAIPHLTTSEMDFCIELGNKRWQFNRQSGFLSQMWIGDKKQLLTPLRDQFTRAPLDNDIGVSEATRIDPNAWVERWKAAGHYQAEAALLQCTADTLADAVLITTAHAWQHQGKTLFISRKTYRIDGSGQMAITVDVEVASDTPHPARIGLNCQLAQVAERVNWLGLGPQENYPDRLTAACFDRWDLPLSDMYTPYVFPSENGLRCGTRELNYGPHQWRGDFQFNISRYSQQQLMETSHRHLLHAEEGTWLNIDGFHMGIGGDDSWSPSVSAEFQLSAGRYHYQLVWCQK
Hexokinase, sequence (Q38C41 whole entry): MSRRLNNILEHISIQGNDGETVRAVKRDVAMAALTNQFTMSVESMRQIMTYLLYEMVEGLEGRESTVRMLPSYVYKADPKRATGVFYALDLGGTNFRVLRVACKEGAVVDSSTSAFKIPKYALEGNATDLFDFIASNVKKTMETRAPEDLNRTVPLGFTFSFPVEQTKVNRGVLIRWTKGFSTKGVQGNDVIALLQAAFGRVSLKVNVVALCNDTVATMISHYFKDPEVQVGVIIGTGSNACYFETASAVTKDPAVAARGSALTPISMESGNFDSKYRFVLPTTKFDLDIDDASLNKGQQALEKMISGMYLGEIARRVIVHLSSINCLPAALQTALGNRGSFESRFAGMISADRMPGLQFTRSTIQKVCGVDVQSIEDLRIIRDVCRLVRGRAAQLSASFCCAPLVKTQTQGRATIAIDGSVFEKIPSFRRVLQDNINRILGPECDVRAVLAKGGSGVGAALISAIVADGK
Phosphoethanolamine/phosphocholine phosphatase, sequence (Q8TCT1 whole entry): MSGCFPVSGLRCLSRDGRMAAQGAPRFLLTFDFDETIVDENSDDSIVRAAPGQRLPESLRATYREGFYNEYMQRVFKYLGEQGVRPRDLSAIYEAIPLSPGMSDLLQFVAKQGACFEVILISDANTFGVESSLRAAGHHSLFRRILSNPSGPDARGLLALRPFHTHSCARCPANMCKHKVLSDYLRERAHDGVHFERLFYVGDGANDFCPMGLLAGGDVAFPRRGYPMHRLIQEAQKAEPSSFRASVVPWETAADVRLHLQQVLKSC

## COc1ccc(-c2sc3ccc(OC)cc3c2C#Cc2ccccn2)cc1
Caspase-7
  EC50: > 85.2 µM (inactive)
Caspase-3
  EC50: > 85.2 µM (inactive)
[1]
  AC50: 3 µM (active)

## O=c1c2ccc(F)cc2sn1Cc1ccccc1
Hexokinase
  IC50: > 25 µM (inactive)

## C=CCN1C(=O)/C(=N\Nc2ccccc2O)c2ccccc21
[2]
  IC50: > 100 µM (inactive)
[3]
  IC50: > 100 µM (inactive)
[4]
  IC50: > 100 µM (inactive)

## CCOC(=O)C1=C(C)N=C(C)/C(=C(\O)OCC)C1c1ccc(Br)o1 (configuration not stated)
[5]
  IC50: 2.42 µM (active)

## O=c1c2ccc(F)cc2sn1-c1cccc(Cl)c1Cl
[6]
  IC50: 0.359 µM (active)
[2]
  IC50: > 50 µM (inactive)
Phosphomannomutase 2
  IC50: > 100 µM (inactive)

## CNc1c2cccc(C)c2nc2c(C(=O)NCCN(C)C)cccc12
HeLa
  AC50: 1.01 µM (active)
[7]
  CC50: 3.39 µM (active)
[8]
  IC50: 34.6 µM (active)
[9]
  IC50: > 150 µM (active)
[10]
  IC50: > 67.5 µM (inactive)
ORF 73
  AC50: 5.35 µM (active)
[11]
  EC50: > 67.5 µM (inactive)

## O=C(NC1CCCCC1)C(c1cccnc1)N(C(=O)CCl)c1ccc(Cl)c(Cl)c1 (configuration not stated)
[12]
  IC50: 0.045 µM (active)

## CC(C)(C)NC(=O)C(=O)NNC(=O)c1ccc(C(C)(C)C)cc1
[13]
  IC50: > 31.5 µM (inactive)
[14]
  IC50: > 32 µM
cells
  IC50: 19.4 µM (active)
Beta-galactosidase
  EC50: > 31.5 µM (inactive)
[15]
  CC50: > 40 µM (active)
[16]
  CC50: > 40 µM (active)

## Cc1ccc(C(=O)C(C(=O)/C=C/c2ccccc2)=C2SCCCS2)cc1
[17]
  EC50: 3.63 µM (active)
[18]
  EC50: 10.3 µM (active)
Vero [19]
  IC50: 7.69 µM (active)
Vero [20]
  CC50: > 25 µM (active)
[21]
  EC50: 0.99 µM (active)
[1]
  AC50: 1.24 µM (active)

## O=C(Nc1ccc(Br)nc1)Nc1cccc(F)c1
[22]
  EC50: 4.04 µM (active)

— ChEMBL document CHEMBL1201862, “PubChem BioAssay data set” (2004)
